Drawing on patent US8946438B2, “Benzamides, production thereof, and use thereof as medicaments” (Boehringer Ingelheim International GmbH, priority 2008, dated 2015), this text covers inhibition for 20 compounds.

The test has as its target p38 MAP-kinase (Homo sapiens, UniProt Q16539). The test can be described thus: Enzymatic assay: inhibition of p38 MAP-kinase (phosphorylation of GST-tagged ATF2, chemoluminescence bead readout). The format is biochemical. The settings on record: inhibitor 1 μM; activated p38 MAP-kinase 1 nM; 4 h preincubation; ATP 100 μM; ATF2 10 nM; read-out: % inhibitory effect at 1 μM. The method, boiled down:
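Activated human p38 MAP-kinase (1 nM) preincubated 4 h at ambient temperature with compound at 1 μM in HEPES pH 7, MgCl2, DTT, Tween20. Then reacted 1 h with GST-ATF2 (10 nM) and ATP (100 μM). Phospho-ATF2 read by bead chemoluminescence at 520-620 nm, given as % inhibition at 1 μM versus kinase-free background.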

Chain of p38 MAP-kinase (Q16539 whole entry): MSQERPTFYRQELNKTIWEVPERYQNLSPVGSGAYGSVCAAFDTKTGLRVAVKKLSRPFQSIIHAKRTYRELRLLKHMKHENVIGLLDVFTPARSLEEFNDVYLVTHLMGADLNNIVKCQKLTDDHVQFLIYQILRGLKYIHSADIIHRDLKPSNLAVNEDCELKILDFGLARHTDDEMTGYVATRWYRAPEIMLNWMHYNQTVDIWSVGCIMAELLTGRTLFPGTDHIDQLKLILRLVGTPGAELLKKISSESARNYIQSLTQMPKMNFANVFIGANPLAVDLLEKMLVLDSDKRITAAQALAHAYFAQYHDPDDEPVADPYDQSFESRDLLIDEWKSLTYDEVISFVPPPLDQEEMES

With `CCCCC(=O)Nc1cc(C(C)(C)C)cc(NC(=O)c2ccc(C)c(Oc3ccnc(CC4CCNCC4)c3)c2)c1OC` [11(2), N-(5-tert-butyl-2-methoxy-3-pentanoylamino-phenyl)-4-methyl-3-(2-piperidin-4-ylmethyl-pyridin-4-yloxy)-benzamide], the inhibition at 1 µM came out at 95.4%. On to `COc1c(NC(=O)c2ccc(C)c(Oc3ccnc(CC4CCNCC4)c3)c2)cc(C(C)(C)C)cc1S(C)(=O)=O` [11(3), N-(5-tert-butyl-3-methanesulphonyl-2-methoxy-phenyl)-4-methyl-3-(2-piperidin-4-ylmethyl-pyridin-4-yloxy)-benzamide], for which the inhibition at 1 µM is 99.5%. With `COc1c(NC(=O)CC(C)C)cc(C(C)(C)C)cc1NC(=O)c1ccc(C)c(Oc2ccnc(CC3CCNCC3)c2)c1` [11(4), N-[5-tert-butyl-2-methoxy-3-(3-methyl-butyrylamino)-phenyl]-4-methyl-3-(2-piperidin-4-ylmethyl-pyridin-4-yloxy)-benzamide] the figure was 95.1%; with `COc1c(NC(=O)c2ccc(Cl)c(Oc3cc(CN4CCN(C)CC4)ncn3)c2)cc(C(C)(C)C)cc1NS(C)(=O)=O` [12(1), N-(5-tert-butyl-3-methanesulphonylamino-2-methoxy-phenyl)-4-chloro-3-[6-(4-methyl-piperazin-1-ylmethyl)-pyrimidin-4-yloxy]-benzamide], 99.4%.

As to `COc1c(NC(=O)c2ccc(Cl)c(Oc3cc(CC4CCN(C)CC4)ncn3)c2)cc(C(C)(C)C)cc1NS(C)(=O)=O` [12(2), N-(5-tert-butyl-3-methanesulphonylamino-2-methoxy-phenyl)-4-chloro-3-[6-(1-methyl-piperidin-4-ylmethyl)-pyrimidin-4-yloxy]-benzamide], the inhibition at 1 µM is 98.7%. `COc1c(NC(=O)c2ccc(Cl)c(Oc3ccnc(CC4CCN(C)CC4)n3)c2)cc(C(C)(C)C)cc1NS(C)(=O)=O` [12(3), N-(5-tert-butyl-3-methanesulphonylamino-2-methoxy-phenyl)-4-chloro-3-[2-(1-methyl-piperidin-4-ylmethyl)-pyrimidin-4-yloxy]-benzamide]: the inhibition at 1 µM was found to be 99.6%. For `COc1c(NC(=O)c2ccc(Cl)c(Oc3ccnc(CN4CCN(C)CC4)c3)c2)cc(C(C)(C)C)cc1NS(C)(=O)=O` [12(4), N-(5-tert-butyl-3-methanesulphonylamino-2-methoxy-phenyl)-4-chloro-3-[2-(4-methyl-piperazin-1-ylmethyl)-pyridin-4-yloxy]-benzamide], the inhibition at 1 µM came to 99.3%. Turning to `COc1c(NC(=O)c2ccc(Cl)c(Oc3ccnc(CC4CCN(C)CC4)c3)c2)cc(C(C)(C)C)cc1NS(C)(=O)=O` [12(5), N-(5-tert-butyl-3-methanesulphonylamino-2-methoxy-phenyl)-4-chloro-3-[2-(1-methyl-piperidin-4-ylmethyl)-pyridin-4-yloxy]-benzamide], the inhibition at 1 µM was determined as 99.5%. On to `COc1c(NC(=O)c2ccc(C)c(Oc3ccnc(CC4CCCN(C)CC4)n3)c2)cc(C(C)(C)C)cc1NS(C)(=O)=O` (centres unmarked) [12(6), N-(5-tert-butyl-3-methanesulphonylamino-2-methoxy-phenyl)-4-methyl-3-[2-(1-methyl-azepan-4-ylmethyl)-pyrimidin-4-yloxy]-benzamide], for which the inhibition at 1 µM turned out to be 99.6%. With `COc1c(NC(=O)c2ccc(C)c(Oc3cc(CC4CCCN(C)CC4)ncn3)c2)cc(C(C)(C)C)cc1NS(C)(=O)=O` (centres unmarked) [12(7), N-(5-tert-butyl-3-methanesulphonylamino-2-methoxy-phenyl)-4-methyl-3-[6-(1-methyl-azepan-4-ylmethyl)-pyrimidin-4-yloxy]-benzamide] the figure was 99.8%; with `COc1c(NC(=O)c2ccc(C)c(Oc3ccnc(CN4CCN(C)CC4)n3)c2)cc(C(C)(C)C)cc1[S+](C)[O-]` (centres unmarked) [13(1), N-(5-tert-butyl-3-methanesulphinyl-2-methoxy-phenyl)-4-methyl-3-[2-(4-methyl-piperazin-1-ylmethyl)-pyrimidin-4-yloxy]-benzamide], 97%; with `COc1c(NC(=O)c2ccc(C)c(Oc3cc[n+]([O-])cc3)c2)cc(C(C)(C)C)cc1NS(C)(=O)=O` [Example 1, N-(5-tert-butyl-3-methanesulphonylamino-2-methoxy-phenyl)-4-methyl-3-(1-oxy-pyridin-4-yloxy)-benzamide], 90.8%. Turning to `COc1c(NC(=O)c2ccc(C)c(Oc3ccncc3)c2)cc(C(C)(C)C)cc1NS(C)(=O)=O` [Example 2, N-(5-tert-butyl-3-methanesulphonylamino-2-methoxy-phenyl)-4-methyl-3-(pyridin-4-yloxy)-benzamide], the inhibition at 1 µM worked out at 97.7%. `CNc1nccc(Oc2cc(C(=O)Nc3cc(C(C)(C)C)cc(NS(C)(=O)=O)c3OC)ccc2C)n1` [Example 3, N-(5-tert-butyl-3-methanesulphonylamino-2-methoxy-phenyl)-4-methyl-3-(2-methylamino-pyrimidin-4-yloxy)-benzamide]: the inhibition at 1 µM worked out at 98.1%.

On to `COc1c(NC(=O)c2ccc(C)c(Oc3ccnc(NCCN4CCCC4)n3)c2)cc(C(C)(C)C)cc1NS(C)(=O)=O` [Example 4, N-(5-tert-butyl-3-methanesulphonylamino-2-methoxy-phenyl)-4-methyl-3-[2-(2-pyrrolidin-1-yl-ethylamino)-pyrimidin-4-yloxy]-benzamide], for which the inhibition at 1 µM worked out at 97.7%.

Take `COc1c(NC(=O)c2ccc(C)c(Oc3ccnc(N4CCNCC4)n3)c2)cc(C(C)(C)C)cc1NS(C)(=O)=O` [Example 5, N-(5-tert-butyl-3-methanesulphonylamino-2-methoxy-phenyl)-4-methyl-3-(2-piperazin-1-yl-pyrimidin-4-yloxy)-benzamide x trifluoroacetic acid]: the inhibition at 1 µM stood at 99%. As for `COc1c(NC(=O)c2cc(C)cc(Oc3ccncc3)c2)cc(C(C)(C)C)cc1NS(C)(=O)=O` [Example 6, N-(5-tert-butyl-3-methanesulphonylamino-2-methoxy-phenyl)-3-methyl-5-(pyridin-4-yloxy)-benzamide], the inhibition at 1 µM worked out at 94.4%. For `CNC(=O)c1cc(Oc2cc(C(=O)Nc3cc(C(C)(C)C)cc(NS(C)(=O)=O)c3OC)ccc2C)ncn1` [Example 7, 6-[5-(5-tert-butyl-3-methanesulphonylamino-2-methoxy-phenylaminocarbonyl)-2-methyl-phenoxy]-pyrimidin-4-carboxylic acid-methylamide], the inhibition at 1 µM turned out to be 95.6%. As to `COc1c(NC(=O)c2ccc(C)c(Oc3cc(CN4CCOCC4)ncn3)c2)cc(C(C)(C)C)cc1NS(C)(=O)=O` [Example 8, N-(5-tert-butyl-3-methanesulphonylamino-2-methoxy-phenyl)-4-methyl-3-(6-morpholin-4-ylmethyl-pyrimidin-4-yloxy)-benzamide], the inhibition at 1 µM was determined as 95%. With `COc1c(NC(=O)c2ccc(C)c(Oc3cc(CC4CCN(C)CC4)ncn3)c2)cc(C(C)(C)C)cc1NS(C)(=O)=O` [Example 9, N-(5-tert-butyl-3-methanesulphonylamino-2-methoxy-phenyl)-4-methyl-3-[6-(1-methyl-piperidin-4-ylmethyl)-pyrimidin-4-yloxy]-benzamide], the inhibition at 1 µM was 98.4%.
